Residues, ends and D or L forms follow the SMILES beside them.
target: T1, human noradrenaline transporter (hNET) (Homo sapiens, UniProt P23975); assay: biochemical; type: binding; conditions: Av IC50 Displacement of 3H-nisoxetine from hNET
T1 construct: expressed in transfected cells; host or cells: COS-7 cells (ATCC), transient transfection with metafectene
T1 sequence (P23975 whole entry): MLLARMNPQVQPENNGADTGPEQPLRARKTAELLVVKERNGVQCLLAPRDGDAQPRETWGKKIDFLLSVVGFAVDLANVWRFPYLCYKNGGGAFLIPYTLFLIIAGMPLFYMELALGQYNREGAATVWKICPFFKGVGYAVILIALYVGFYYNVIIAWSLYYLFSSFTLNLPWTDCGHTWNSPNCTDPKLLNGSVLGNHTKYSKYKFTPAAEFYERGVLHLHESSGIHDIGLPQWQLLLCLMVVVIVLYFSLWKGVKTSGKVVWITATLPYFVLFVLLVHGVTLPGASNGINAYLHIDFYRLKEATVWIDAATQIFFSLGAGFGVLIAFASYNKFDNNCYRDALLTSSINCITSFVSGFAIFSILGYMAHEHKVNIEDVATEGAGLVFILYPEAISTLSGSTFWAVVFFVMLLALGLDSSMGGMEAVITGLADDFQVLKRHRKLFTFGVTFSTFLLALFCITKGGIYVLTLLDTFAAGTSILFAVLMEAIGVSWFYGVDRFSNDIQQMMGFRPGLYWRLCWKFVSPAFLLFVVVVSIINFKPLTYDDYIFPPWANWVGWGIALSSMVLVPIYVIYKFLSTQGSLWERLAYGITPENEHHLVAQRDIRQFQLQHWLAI

First: CC(C)C[C@@H]1NC(=O)[C@H](CCCCN)NC(=O)[C@H](Cc2ccc(O)cc2)NC(=O)CNC(=O)[C@@H]2CSSC[C@H](NC1=O)C(=O)N[C@@H](CCCNC(=N)N)C(=O)N[C@@H](C)C(=O)N[C@H](C(N)=O)CSSC[C@H](NC(=O)[C@@H](NC(=O)CNC(=O)[C@H](CCCNC(=N)N)NC(=O)[C@@H](N)Cc1c[nH]c3ccccc13)C(C)C)C(=O)N2 [compound 38]
Second: CC(C)C[C@H](NC(=O)CNC(=O)[C@H](CCCNC(=N)N)NC(=O)[C@@H](N)Cc1c[nH]c2ccccc12)C(=O)N[C@H]1CSSC[C@@H](C(N)=O)NC(=O)[C@H](C)NC(=O)[C@H](CCCNC(=N)N)NC(=O)[C@@H]2CSSC[C@H](NC1=O)C(=O)NCC(=O)N[C@@H](Cc1ccc(O)cc1)C(=O)N[C@@H](CCCCN)C(=O)N[C@@H](CC(C)C)C(=O)N2 [compound 78]
The IC50 of the first is 2.7-fold lower: 102 nM for the first, 275 nM for the second.

`CC(C)C[C@@H]1NC(=O)[C@H](CCCCN)NC(=O)[C@H](Cc2ccc(O)cc2)NC(=O)CNC(=O)[C@@H]2CSSC[C@H](NC1=O)C(=O)N[C@@H](Cc1c[nH]cn1)C(=O)N[C@@H](C)C(=O)N[C@H](C(N)=O)CSSC[C@H](NC(=O)[C@@H](NC(=O)CNC(=O)[C@H](CCCNC(=N)N)NC(=O)[C@@H](N)Cc1c[nH]c3ccccc13)C(C)C)C(=O)N2` [compound 54] and `CC(C)C[C@@H]1NC(=O)[C@H](CCCCN)NC(=O)[C@H](Cc2ccc(O)cc2)NC(=O)CNC(=O)[C@@H]2CSSC[C@H](NC1=O)C(=O)N[C@@H](CCCNC(=N)N)C(=O)N[C@@H](C)C(=O)N[C@H](C(N)=O)CSSC[C@H](NC(=O)[C@@H](NC(=O)CNC(=O)[C@H](CC(N)=O)NC(=O)[C@@H](N)Cc1c[nH]c3ccccc13)C(C)C)C(=O)N2` [compound 69] (HELM PEPTIDE1{W.N.G.V.C.C.G.Y.K.L.C.R.A.C.[am]}$PEPTIDE1,PEPTIDE1,5:R3-14:R3|PEPTIDE1,PEPTIDE1,6:R3-11:R3$$$V2.0) are within 1.5-fold of each other in IC50: 158 nM for the first, 219 nM for the second.

First: CC(C)C[C@@H]1NC(=O)[C@H](CCCCN)NC(=O)[C@H](Cc2ccc(O)cc2)NC(=O)CNC(=O)[C@@H]2CSSC[C@H](NC1=O)C(=O)N[C@@H](Cc1c[nH]c3ccccc13)C(=O)N1CCC[C@H]1C(=O)N[C@H](C(N)=O)CSSC[C@H](NC(=O)[C@@H](NC(=O)CNC(=O)[C@@H](N)CC(N)=O)C(C)C)C(=O)N2 [compound 59] (HELM PEPTIDE1{N.G.V.C.C.G.Y.K.L.C.W.P.C.[am]}$PEPTIDE1,PEPTIDE1,4:R3-13:R3|PEPTIDE1,PEPTIDE1,5:R3-10:R3$$$V2.0)
Second: CC(C)C[C@@H]1NC(=O)[C@H](CCCCN)NC(=O)[C@H](Cc2ccc(O)cc2)NC(=O)CNC(=O)[C@@H]2CSSC[C@H](NC1=O)C(=O)N[C@@H](Cc1c[nH]c3ccccc13)C(=O)N1CCC[C@H]1C(=O)N[C@H](C(N)=O)CSSC[C@H](NC(=O)[C@@H](NC(=O)CNC(=O)[C@H](CC(N)=O)NC(=O)[C@@H](N)Cc1ccc(O)cc1)C(C)C)C(=O)N2 [compound 91]
The IC50 of the first is 2.2-fold lower: 174 nM for the first, 389 nM for the second. The first is the more potent here.

Compared with `CC(C)C[C@@H]1NC(=O)[C@H](CCCCN)NC(=O)[C@H](Cc2ccc(O)cc2)NC(=O)CNC(=O)[C@@H]2CSSC[C@H](NC1=O)C(=O)N[C@@H](CCCNC(=N)N)C(=O)N1CCC[C@H]1C(=O)N[C@H](C(N)=O)CSSC[C@H](NC(=O)[C@@H](NC(=O)CNC(=O)[C@H](CC(N)=O)NC(=O)[C@@H](N)Cc1c[nH]c3ccccc13)C(C)C)C(=O)N2` [compound 60], `CC(C)C[C@@H]1NC(=O)[C@H](CCCCN)NC(=O)[C@H](Cc2ccc(O)cc2)NC(=O)CNC(=O)[C@@H]2CSSC[C@H](NC1=O)C(=O)N[C@@H](CCCNC(=N)N)C(=O)N1CCC[C@H]1C(=O)N[C@H](C(N)=O)CSSC[C@H](NC(=O)[C@@H](NC(=O)CNC(=O)[C@H](CC(N)=O)NC(=O)[C@@H](N)Cc1ccc(O)cc1)C(C)C)C(=O)N2` [compound 84] is 1.7-fold higher in IC50: 178 nM for the first, 302 nM for the second.

Compared with `CC(C)C[C@@H]1NC(=O)[C@H](CCCCN)NC(=O)[C@H](Cc2ccc(O)cc2)NC(=O)CNC(=O)[C@@H]2CSSC[C@H](NC1=O)C(=O)N[C@@H](Cc1c[nH]cn1)C(=O)N1CCC[C@H]1C(=O)N[C@H](C(N)=O)CSSC[C@H](NC(=O)[C@@H](NC(=O)[C@H](CC(=O)O)NC(=O)[C@@H](N)CC(N)=O)C(C)C)C(=O)N2` [compound 63] (HELM PEPTIDE1{N.D.V.C.C.G.Y.K.L.C.H.P.C.[am]}$PEPTIDE1,PEPTIDE1,4:R3-13:R3|PEPTIDE1,PEPTIDE1,5:R3-10:R3$$$V2.0), `CC(C)C[C@H](NC(=O)CNC(=O)[C@@H](N)CC(N)=O)C(=O)N[C@H]1CSSC[C@@H](C(N)=O)NC(=O)[C@@H]2CCCN2C(=O)[C@H](Cc2c[nH]cn2)NC(=O)[C@@H]2CSSC[C@H](NC1=O)C(=O)NCC(=O)N[C@@H](Cc1ccc(O)cc1)C(=O)N[C@@H](CCCCN)C(=O)N[C@@H](CC(C)C)C(=O)N2` [compound 97] is 2.6-fold higher in IC50: 191 nM for the first, 501 nM for the second.

First: CC(C)C[C@H](NC(=O)CNC(=O)[C@H](CCCNC(=N)N)NC(=O)[C@@H](N)Cc1c[nH]c2ccccc12)C(=O)N[C@H]1CSSC[C@@H](C(N)=O)NC(=O)CNC(=O)[C@H](CCCNC(=N)N)NC(=O)[C@@H]2CSSC[C@H](NC1=O)C(=O)NCC(=O)N[C@@H](Cc1ccc(O)cc1)C(=O)N[C@@H](CCCCN)C(=O)N[C@@H](CC(C)C)C(=O)N2 [compound 64] (HELM PEPTIDE1{W.R.G.L.C.C.G.Y.K.L.C.R.G.C.[am]}$PEPTIDE1,PEPTIDE1,5:R3-14:R3|PEPTIDE1,PEPTIDE1,6:R3-11:R3$$$V2.0; N-terminus and C-terminus assumed)
Second: CC(C)C[C@@H]1NC(=O)[C@H](CCCCN)NC(=O)[C@H](Cc2ccc(O)cc2)NC(=O)CNC(=O)[C@@H]2CSSC[C@H](NC1=O)C(=O)N[C@@H](CCCNC(=N)N)C(=O)N[C@@H](C)C(=O)N[C@H](C(N)=O)CSSC[C@H](NC(=O)[C@@H](NC(=O)CNC(=O)[C@H](CC(N)=O)NC(=O)[C@@H](N)Cc1ccc(O)cc1)C(C)C)C(=O)N2 [compound 81]
The IC50 of the first is 1.5-fold lower: 191 nM for the first, 295 nM for the second.

First: CC(C)C[C@H](NC(=O)[C@H](CC(=O)O)NC(=O)[C@H](CCCCN)NC(=O)[C@@H](N)Cc1c[nH]c2ccccc12)C(=O)N[C@H]1CSSC[C@@H](C(N)=O)NC(=O)[C@@H]2CCCN2C(=O)[C@H](Cc2c[nH]c3ccccc23)NC(=O)[C@@H]2CSSC[C@H](NC1=O)C(=O)NCC(=O)N[C@@H](Cc1ccc(O)cc1)C(=O)N[C@@H](CCCCN)C(=O)N[C@@H](CC(C)C)C(=O)N2 [compound 90] (HELM PEPTIDE1{W.K.D.L.C.C.G.Y.K.L.C.W.P.C.[am]}$PEPTIDE1,PEPTIDE1,5:R3-14:R3|PEPTIDE1,PEPTIDE1,6:R3-11:R3$$$V2.0)
Second: CC[C@H](C)[C@H](NC(=O)CN)C(=O)N[C@@H](CC(C)C)C(=O)N[C@@H](CCCNC(=N)N)C(=O)N[C@@H](CC(N)=O)C(=O)NCC(=O)N[C@H](C(=O)N[C@H]1CSSC[C@@H](C(N)=O)NC(=O)[C@@H]2CCCN2C(=O)[C@H](Cc2c[nH]cn2)NC(=O)[C@@H]2CSSC[C@H](NC1=O)C(=O)NCC(=O)N[C@@H](Cc1ccc(O)cc1)C(=O)N[C@@H](CCCCN)C(=O)N[C@@H](CC(C)C)C(=O)N2)C(C)C [compound 105] (HELM PEPTIDE1{G.I.L.R.N.G.V.C.C.G.Y.K.L.C.H.P.C.[am]}$PEPTIDE1,PEPTIDE1,8:R3-17:R3|PEPTIDE1,PEPTIDE1,9:R3-14:R3$$$V2.0)
The IC50 of the first is 2.1-fold lower: 355 nM for the first, 759 nM for the second.

Compound `CC(C)C[C@@H]1NC(=O)[C@H](CCCCN)NC(=O)[C@H](Cc2ccc(O)cc2)NC(=O)CNC(=O)[C@@H]2CSSC[C@H](NC1=O)C(=O)N[C@@H](Cc1c[nH]cn1)C(=O)N1CCC[C@H]1C(=O)N[C@H](C(N)=O)CSSC[C@H](NC(=O)[C@@H](NC(=O)CNC(=O)[C@@H](N)CCCNC(=N)N)C(C)C)C(=O)N2` [compound 98] has an IC50 of 513 nM.
